According to US6600091B1, “Enzymes responsible for the metabolism of zeatin” (The State of Oregon acting by and through the State Board …, priority 1998, dated 2003):

Experiments:
[1] = molecular target: T1, Recombinant Zeatin O-glucosyltransferase (Phaseolus lunatus, UniProt Q9ZSK5); assay: Cytokinin conversion assay with recombinant zeatin O-glucosyltransferase (14C-cytokinin + glycosyl donor, products separated by HPLC); assay type: biochemical, Phaseolous lunatus
T1 construct: the polypeptide encoded by the ORF plus the 5′ untranslated region and the α-peptide from the cloning vector; alpha-peptide encoded by the cloning vector (33 amino acids, pZL1/ZipLox); made in house; host or cells: E. coli BL21(DE3) pLysS
T1 sequence (Q9ZSK5 1-459): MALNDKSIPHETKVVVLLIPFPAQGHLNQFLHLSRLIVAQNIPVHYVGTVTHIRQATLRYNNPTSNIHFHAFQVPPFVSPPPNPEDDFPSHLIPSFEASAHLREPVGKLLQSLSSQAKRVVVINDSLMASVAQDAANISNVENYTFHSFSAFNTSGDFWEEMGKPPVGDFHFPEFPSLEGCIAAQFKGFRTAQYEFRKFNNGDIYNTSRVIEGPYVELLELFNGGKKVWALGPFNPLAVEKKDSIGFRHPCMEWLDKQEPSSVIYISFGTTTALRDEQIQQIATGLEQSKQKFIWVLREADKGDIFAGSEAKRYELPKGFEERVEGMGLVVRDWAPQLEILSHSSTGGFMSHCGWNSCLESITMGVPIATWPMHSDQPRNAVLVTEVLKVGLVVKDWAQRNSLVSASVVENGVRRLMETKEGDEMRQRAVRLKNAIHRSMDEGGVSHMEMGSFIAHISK
Description: Isolation of recombinant zeatin O-glucosyltransferase proteins. To obtain recombinant proteins, purified plasmids were transformed into Epicurian Coli BL21(DE3) pLysS Competent cells (Stratagene, LaJolla, Calif.) following the recommended protocol. Colonies were selected on AMP-LB plates. An individual colony was grown overnight in SOC-AMP media and 0.5 ml of the culture was used to inoculate 50 mls of SOC-AMP media. […] After 4 hours cells were collected and frozen at −80° C. overnight. Cells were lysed the next day by thawing and resuspending in 0.5 ml of 0.2 M Tris pH 7.5 containing 1 mg/ml of lysozyme. DNAase (1 μg/10 μl sample) was added after a 10-min. cycle of freeze-thaw at −80° C. Soluble proteins were collected after centrifugation. Recombinant proteins were further purified on a DEAE anion exchange column using the Bio-Rad Biologic liquid chromatography system.
(§1) Assay for cytokinin conversion activity and analysis of reaction products. […] Briefly, ^14C-labeled cytokinins (specific activity of 24 mCi/mmol), glycosyl donor (3 mM of UDPG or UDPX), MgCl2 (0.05M) and ATP (0.5 mM) in 1 mM Tris, pH 8.0 were incubated with a specified amount of the recombinant protein at 27° C. […] The supernatant was concentrated to 100 μl in vacuo (Speed Vac Concentrator, Savant) and analyzed by HPLC using a reversed phase C18column.
(§2) The aqueous buffer consisted of 0.2M acetic acid adjusted to pH 3.5 with TEA. Samples were eluted with a linear gradient of methanol (5-50% over 90 minutes) in TEA buffer. The flow rate was 1 mL/min. and 0.5 mL fractions were collected. […] Radioactivity in these fractions was determined in Ready-Gel scintillation fluid (Beckman) with a Beckman LS 7000 scintillation counter.

[2] = molecular target: T2, Recombinant Protein Encoded by the ORF of Zeatin O-xylosyltranferase (Phaseolus vulgaris, UniProt P56725); assay: Cytokinin conversion assay with recombinant protein encoded by the ORF of zeatin O-xylosyltransferase (radio-labeled cytokinin + glycosyl donor, HPLC); assay type: biochemical, Phaseolous vulgaris; conditions: for Product (%) / Product CPM / Substrate Left (%) / Substrate Left CPM: 125 μl protein from culture supernatant, 4 hrs
T2 construct: the ORF of the gene was excised from the pGem-T vector (Promega) using the restriction enzymes Not1 and Sal1; made in house; host or cells: E. coli BL21(DE3) pLysS
T2 sequence (P56725 1-454): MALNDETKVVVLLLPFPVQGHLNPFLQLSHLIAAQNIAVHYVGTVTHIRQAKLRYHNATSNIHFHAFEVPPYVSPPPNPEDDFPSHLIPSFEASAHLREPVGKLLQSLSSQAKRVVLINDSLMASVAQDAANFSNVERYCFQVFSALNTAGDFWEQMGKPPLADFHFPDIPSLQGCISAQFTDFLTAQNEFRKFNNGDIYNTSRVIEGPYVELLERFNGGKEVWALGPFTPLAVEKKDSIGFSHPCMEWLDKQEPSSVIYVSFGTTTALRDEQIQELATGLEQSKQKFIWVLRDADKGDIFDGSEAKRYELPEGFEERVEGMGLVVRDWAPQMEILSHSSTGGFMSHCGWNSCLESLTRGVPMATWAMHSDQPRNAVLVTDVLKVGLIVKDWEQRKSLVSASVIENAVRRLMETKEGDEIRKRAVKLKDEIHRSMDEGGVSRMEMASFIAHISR
Excerpt: Isolation of recombinant zeatin O-xylosyltransferase proteins. Zeatin O-xylosyltransferase protein was purified using the same techniques as described above. Briefly, the coding sequences were ligated into an IPTG inducible plasmid which was transformed into Epicurian Coli BL21(DE3) pLysS Competent cells (Stratagene, LaJolla, Calif.). IPTG was then used to induce protein. Cells were subsequently lysed and the protein was separated out through the use of ion exchange chromatography.
as §1, §2
Isolation and authentication of zeatin O-xylosyltransferase cDNA clones. To assess the enzyme activity of the protein encoded by zeatin O-xylosyltransferase, the ORF of the gene was excised from the pGem-T vector (Promega) using the restriction enzymes Not1 and Sal1. The resulting fragment was then ligated into the Not1/Sal1 site of the pZipLox plasmid.

[3] = glycosyl donor UDPG, B: DEAE-purified proteins (4 μg), approx. 0.5 nmole 14C-cytokinin
[4] = glycosyl donor UDPG, A: 200 μl supernatant from lysed cells, approx. 1 nmole 14C-labeled zeatin, 2 hr
[5] = glycosyl donor UDPX, A: 200 μl supernatant from lysed cells, approx. 1 nmole 14C-labeled zeatin, 2 hr

| Structure (SMILES) | Product (%) [1, 3] | Product CPM [1, 3] | Substrate Left (%) [1, 3] | Substrate Left CPM [1, 3] | Product (%) ([2]; glycosyl donor UDPX) | Product CPM ([2]; glycosyl donor UDPX) | Substrate Left (%) ([2]; glycosyl donor UDPX) | Substrate Left CPM ([2]; glycosyl donor UDPX) | further results |
| --- | --- | --- | --- | --- | --- | --- | --- | --- | --- |
| CC(CO)CCNc1ncnc2nc[nH]c12 (stereo not drawn) [DHZ, dihydrozeatin] | 1% | 329 CPM | 99% | 24178 CPM | 78% | 33237 CPM | 22% | 9244 CPM | Formation of O-glucosyldihydrozeatin (in words) ([1]; DEAE-column purified recombinant protein): trace |
| C/C(=C/CNc1ncnc2nc[nH]c12)CO [cis-Z, Cis-zeatin] | – | – | – | – | – | – | 100% | 29460 CPM | – |
| C/C(=C\CNc1ncnc2[nH]cnc12)CO [Z, trans-zeatin] | 14% | 3731 CPM | 86% | 23115 CPM | 82% | 35838 CPM | 18% | 7768 CPM | Product (%) [1, 4]: 100%; Product CPM [1, 4]: 39715 CPM; Substrate Left (%) [1, 4]: 0 (0%); Substrate Left CPM [1, 4]: 0 (0%) CPM; Conversion to O-glucosylzeatin (in words) ([1]; glycosyl donor UDPG, supernatant with recombinant protein, listed as 14C-zeatin): efficiently converted; Product (%) [1, 5]: 18%; Product CPM [1, 5]: 4956 CPM; Substrate Left (%) [1, 5]: 82%; Substrate Left CPM [1, 5]: 23078 CPM; Conversion of zeatin (in words) ([2]; UDPG as the sugar donor): no detectable conversion; Substrate Left (%) ([2]; glycosyl donor UDPG): 100%; Substrate Left CPM ([2]; glycosyl donor UDPG): 41679 CPM |
| C/C(=C\CNc1ncnc2c1ncn2[C@@H]1O[C@H](CO)[C@@H](O)[C@H]1O)CO [RZ, ribosylzeatin] | – | – | – | – | – | – | 100% | 39238 CPM | – |
